From ChEMBL document CHEMBL6074708, “Advanced Delivery Systems and Novel Psilocin Derivatives for Enhanced Therapeutic Applications” (ACS Med Chem Lett, 2024)

target: 5-hydroxytryptamine receptor 2A (Homo sapiens) (UniProt P28223); assay: Displacement of [3H]ketanserin from human 5HT2A receptor expressed in HEK293 cells at 0 to 10000 nM preincubated with compound for 30 mins followed by [3H]ketanserin addition and measured after 60 mins by microBeta scintillation counter relative to psilocin; format: cell-based; conditions: dose 0-10000 nM, time 90.0 min
Sequence (P28223 whole entry): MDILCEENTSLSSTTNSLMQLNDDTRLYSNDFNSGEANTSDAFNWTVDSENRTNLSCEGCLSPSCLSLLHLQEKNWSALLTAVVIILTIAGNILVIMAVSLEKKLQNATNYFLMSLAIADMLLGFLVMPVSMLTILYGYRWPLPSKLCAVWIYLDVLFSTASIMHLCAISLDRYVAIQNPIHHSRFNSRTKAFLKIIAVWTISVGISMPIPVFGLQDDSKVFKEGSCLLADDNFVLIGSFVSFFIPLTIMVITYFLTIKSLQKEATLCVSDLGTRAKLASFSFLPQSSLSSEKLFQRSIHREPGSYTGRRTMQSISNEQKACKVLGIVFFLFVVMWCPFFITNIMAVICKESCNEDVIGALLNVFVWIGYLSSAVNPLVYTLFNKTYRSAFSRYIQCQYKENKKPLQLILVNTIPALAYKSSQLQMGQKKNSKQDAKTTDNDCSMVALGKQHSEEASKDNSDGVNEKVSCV

| Compound | Activity |
| --- | --- |
| CN(C)CCc1c[nH]c2cccc(OC(=O)C(C)(C)C(=O)Oc3cccc4[nH]cc(CCN(C)C)c34)c12 | Active; Higher Activity Observed |
| CN(C)CCc1c[nH]c2cccc(OC(=O)c3cccc(C(=O)Oc4cccc5[nH]cc(CCN(C)C)c45)c3)c12 | Active; Higher Activity Observed |
| CN(C)CCc1c[nH]c2cccc(O)c12 | Active; Same Activity Observed |
| CN(C)CCc1c[nH]c2cccc(OC(=O)[C@H]3C[C@@H]3C(=O)Oc3cccc4[nH]cc(CCN(C)C)c34)c12 | Active; Higher Activity Observed |
| CN(C)CCc1c[nH]c2cccc(OC(=O)c3ccc(Br)cc3)c12 | Active; Same Activity Observed |
| CN(C)CCc1c[nH]c2cccc(OC(=O)CCCC(=O)Oc3cccc4[nH]cc(CCN(C)C)c34)c12 | Active; Higher Activity Observed |
| CN(C)CCc1c[nH]c2cccc(OC(=O)CCC(=O)Oc3cccc4[nH]cc(CCN(C)C)c34)c12 | Active; Higher Activity Observed |
| CN(C)CCc1c[nH]c2cccc(OC(=O)c3ccccc3F)c12 | Active; Same Activity Observed |
